Measured values taken from the NIST ThermoML archive (doi:10.1021/je901043q).

Tests used:
[1] = 101 kPa, Liquid
[2] = xn = mol fraction of the nth substance listed; details: 101 kPa, Liquid

CCCCn1cc[n+](C)c1.N#C[S-] [1-butyl-3-methylimidazolium thiocyanate]
[1]
Details	mass density [kg/m3]	viscosity [mPa·s]
298.15 K	1069.79	51.74
308.15 K	1063.89	34.87
318.15 K	1058.02	24.19
328.15 K	1052.19	16.7
338.15 K	1046.43	12.73
348.15 K	1040.7	9.98

CCCCn1cc[n+](C)c1.N#C[S-] [1-butyl-3-methylimidazolium thiocyanate] + CCCCCCCCCO
[2]
Details	mass density [kg/m3]	viscosity [mPa·s]
298.15 K, x1 = 0.1203	855.59	12.19
298.15 K, x1 = 0.2008	876.27	14.2
298.15 K, x1 = 0.2814	896.75	16.58
298.15 K, x1 = 0.3884	923.66	20.3
298.15 K, x1 = 0.5697	968.54	28.04
298.15 K, x1 = 0.6709	993.14	32.31
298.15 K, x1 = 0.7658	1015.88	–
298.15 K, x1 = 0.8618	1038.46	41.61
298.15 K, x1 = 0.9651	1062.11	46.89
298.15 K, x1 = 1	1069.79	51.74
308.15 K, x1 = 0.1203	848.88	8.664
308.15 K, x1 = 0.2008	869.7	10.14
308.15 K, x1 = 0.2814	890.24	11.81
308.15 K, x1 = 0.3884	917.27	14.3
308.15 K, x1 = 0.5697	962.4	19.35
308.15 K, x1 = 0.6709	987.05	22.23
308.15 K, x1 = 0.7658	1009.89	–
308.15 K, x1 = 0.8618	1032.53	27.8
308.15 K, x1 = 0.9651	1056.18	31.09
308.15 K, x1 = 1	1063.89	34.87
318.15 K, x1 = 0.1203	841.98	6.378
318.15 K, x1 = 0.2008	862.96	7.487
318.15 K, x1 = 0.2814	883.74	8.739
318.15 K, x1 = 0.3884	910.89	10.55
318.15 K, x1 = 0.5697	956.26	14.03
318.15 K, x1 = 0.6709	981.02	16.01
318.15 K, x1 = 0.7658	1003.93	–
318.15 K, x1 = 0.8618	1026.62	19.67
318.15 K, x1 = 0.9651	1050.33	21.81
318.15 K, x1 = 1	1058.02	24.19
328.15 K, x1 = 0.1203	835.4	4.782
328.15 K, x1 = 0.2008	856.36	5.662
328.15 K, x1 = 0.2814	877.25	6.629
328.15 K, x1 = 0.3884	904.56	8.032
328.15 K, x1 = 0.5697	950.15	10.61
328.15 K, x1 = 0.6709	975	12.04
328.15 K, x1 = 0.7658	998.03	–
328.15 K, x1 = 0.8618	1020.79	14.55
328.15 K, x1 = 0.9651	1044.5	16.06
328.15 K, x1 = 1	1052.19	16.7
338.15 K, x1 = 0.1203	828.56	3.695
338.15 K, x1 = 0.2008	849.77	4.408
338.15 K, x1 = 0.2814	870.73	5.139
338.15 K, x1 = 0.3884	898.2	6.237
338.15 K, x1 = 0.5697	944.06	8.26
338.15 K, x1 = 0.6709	969.04	9.33
338.15 K, x1 = 0.7658	992.15	–
338.15 K, x1 = 0.8618	1014.99	11.22
338.15 K, x1 = 0.9651	1038.73	12.32
338.15 K, x1 = 1	1046.43	12.73
348.15 K, x1 = 0.1203	821.64	2.971
348.15 K, x1 = 0.2008	843.14	3.521
348.15 K, x1 = 0.2814	864.18	4.102
348.15 K, x1 = 0.3884	891.86	4.962
348.15 K, x1 = 0.5697	937.98	6.512
348.15 K, x1 = 0.6709	963.09	7.404
348.15 K, x1 = 0.7658	986.31	–
348.15 K, x1 = 0.8618	1009.22	8.89
348.15 K, x1 = 0.9651	1032.99	9.74
348.15 K, x1 = 1	1040.7	9.98
